Assay [1] concerns the target T1, form A of monoamine oxydase (Rattus norvegicus, UniProt P21396).
T1 construct: monoamine oxydase in rat brain tissue; from tissue; host or cells: homogenized entire brain of male Sprague-Dawley rat
T1 sequence (P21396 1-526): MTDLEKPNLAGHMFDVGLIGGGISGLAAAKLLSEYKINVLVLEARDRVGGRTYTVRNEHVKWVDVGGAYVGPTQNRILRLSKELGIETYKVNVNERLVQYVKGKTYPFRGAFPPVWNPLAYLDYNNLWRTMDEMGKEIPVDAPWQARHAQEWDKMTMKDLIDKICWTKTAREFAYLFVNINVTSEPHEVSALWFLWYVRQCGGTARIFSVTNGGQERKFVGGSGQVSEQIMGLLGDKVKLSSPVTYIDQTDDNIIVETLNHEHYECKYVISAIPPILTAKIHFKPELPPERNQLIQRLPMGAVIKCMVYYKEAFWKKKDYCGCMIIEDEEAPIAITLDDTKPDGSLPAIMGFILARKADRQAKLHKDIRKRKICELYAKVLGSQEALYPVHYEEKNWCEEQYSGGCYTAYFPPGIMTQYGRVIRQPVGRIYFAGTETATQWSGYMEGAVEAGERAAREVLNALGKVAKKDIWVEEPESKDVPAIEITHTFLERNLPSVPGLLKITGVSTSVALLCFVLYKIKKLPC
Nature of the assay: in vitro inhibition of monoamine oxydase form A (homogenized rat brain, (14C) serotonine substrate). The format is biochemical, rat (male Sprague-Dawley, entire brain). The settings on record: rat brain homogenate. The procedure: Pharmacol., 1983, 35, 161-165.
(§1) Inhibition constants KIA and KIB on forms A and B of mono-
(§2) amine oxydase (homogenized entire brain of a male rate
(§3) (Sprague-Dawley): 1 g of tissue to 16 ml of phosphate
(§4) The inhibition constants were calculated from the formula: KI =
CI50 /l + [S]/Km taking [S] = 48 μM for (^14 C)
serotonine and Km = 100 μM, or [S] = 12 μM for (^14 C)
phenylethylamine and Km = 6 μM
(§5) as the selective substrates for forms A and B respectively of monoamine oxydase.

Assay [2] addresses T2, form B of monoamine oxydase (Rattus norvegicus, UniProt P19643).
T2 construct: monoamine oxydase in rat brain tissue; from tissue; host or cells: homogenized entire brain of male Sprague-Dawley rat
T2 sequence (P19643 1-520): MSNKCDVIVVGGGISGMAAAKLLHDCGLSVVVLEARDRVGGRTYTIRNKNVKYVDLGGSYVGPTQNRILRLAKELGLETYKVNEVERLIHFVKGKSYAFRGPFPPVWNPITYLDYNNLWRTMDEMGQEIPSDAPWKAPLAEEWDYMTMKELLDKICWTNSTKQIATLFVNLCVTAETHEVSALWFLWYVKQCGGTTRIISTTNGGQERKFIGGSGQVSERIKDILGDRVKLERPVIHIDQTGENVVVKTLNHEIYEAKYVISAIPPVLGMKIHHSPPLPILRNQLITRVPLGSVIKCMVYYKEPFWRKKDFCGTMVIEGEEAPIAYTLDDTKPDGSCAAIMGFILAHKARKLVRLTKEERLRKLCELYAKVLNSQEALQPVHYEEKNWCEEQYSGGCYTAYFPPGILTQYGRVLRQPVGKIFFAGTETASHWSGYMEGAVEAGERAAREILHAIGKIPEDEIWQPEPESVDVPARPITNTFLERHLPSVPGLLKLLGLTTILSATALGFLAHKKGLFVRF
The assay can be described thus: in vitro inhibition of monoamine oxydase form B (homogenized rat brain, (14C) phenylethylamine substrate). The assay is classed as biochemical, rat (male Sprague-Dawley, entire brain). The conditions noted are these: for Ki: rat brain homogenate, pH 7.4, (14C) phenylethylamine; for KIA /KIB, no pre-incubation / KIA /KIB, after 20 min pre-incubation: selectivity ratio form A / form B. The procedure: as §1, §2, §3, §4, §5

Setting [3] is: no pre-incubation, pH 7.4, read-out: Inhibition constant KIA, no pre-incubation.
The mark [4] stands for this setting: no pre-incubation, read-out: Inhibition constant KIB, no pre-incubation.
[5] abbreviates: after 20 min pre-incubation, pH 7.4, read-out: Inhibition constant KIA, after 20 min pre-incubation.
The mark [6] stands for this setting: after 20 min pre-incubation, read-out: Inhibition constant KIB, after 20 min pre-incubation.

Read-outs that look alike come from different tables or passages of the source.

Regarding `COC(CO)COc1ccc(OCc2cccc(Cl)c2)cc1` (racemic) [compound 200213, [(chloro-3 phenylmethyloxy)-4 phenoxy]-3 methoxy-2 propanol-1 (±)], the Ki in assay [1] (setting [3]) was greater than 5170 nM; in assay [2] (setting [4]) it was 543 nM. In addition, in assay [2] (no pre-incubation), the “KIA /KIB, no pre-incubation” value was greater than 9.5.
Regarding `OCCCCc1ccc(OCc2cccc(Cl)c2)cc1` [compound 200123], the Ki is greater than 1720 nM in assay [1] (setting [3]) and 232 nM in assay [2] (setting [4]). Further, the “KIA /KIB, no pre-incubation” value in assay [2] (no pre-incubation) is greater than 7.
As for `COC[C@H](O)COc1ccc(OCc2cccc(Cl)c2)cc1` [compound 280040, [(chloro-3 phenylmethyloxy)-4 phenoxy]-1 methoxy-3 propanol-2 S (+)], in assay [1] (setting [5]), the Ki amounted to 1650 nM.
Turning to `COCC(COc1ccc(OCc2cccc(Cl)c2)cc1)OC` (racemic) [compound 200210], the Ki in assay [1] (setting [5]) is greater than 1720 nM; in assay [1] (setting [3]), greater than 1720 nM; in assay [2] (setting [6]) it was 570 nM; in assay [2] (setting [4]) it was 403 nM. Also, the “KIA /KIB, after 20 min pre-incubation” value in assay [2] (after 20 min pre-incubation) is given as greater than 3. Moreover, the “KIA /KIB, no pre-incubation” value in assay [2] (no pre-incubation) was greater than 4.
As for `COCCCC(O)c1ccc(OCc2cccc(Cl)c2)cc1` (racemic) [compound 280190, [(chloro-3 phenylmethyloxy)-4 phenyl]-1 methoxy-4 butanol-1 (±)], the Ki in assay [1] (setting [5]) was 5430 nM; in assay [2] (setting [6]), 79 nM. Besides, in assay [2] (after 20 min pre-incubation), the “KIA /KIB, after 20 min pre-incubation” value is recorded as 69.
